The results in this text go back to PMC7174661, “Patch-Clamp Analysis of the Mitochondrial H^+ Leak in Brown and Beige Fat” (Frontiers in Physiology, 2020).

The test deals with T1, UCP1 (Mus musculus, UniProt P12242).
T1 construct: native full-length protein in the inner mitochondrial membrane; mitoplasts from brown (or beige) fat; no tags
T1 sequence (P12242 1-307): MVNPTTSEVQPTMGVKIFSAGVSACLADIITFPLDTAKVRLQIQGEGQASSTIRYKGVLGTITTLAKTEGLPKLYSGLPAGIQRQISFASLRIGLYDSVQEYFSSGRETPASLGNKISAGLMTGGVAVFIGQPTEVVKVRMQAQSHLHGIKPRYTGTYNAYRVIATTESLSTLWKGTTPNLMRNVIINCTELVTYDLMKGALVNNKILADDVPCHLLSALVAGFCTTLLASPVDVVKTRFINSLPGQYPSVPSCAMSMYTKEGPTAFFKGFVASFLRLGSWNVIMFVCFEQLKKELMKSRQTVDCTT
Briefly: whole-mitoplast patch-clamp, inhibition of H+ current. The test is classed as biochemical. The note with it: Mg2+-free ATP, cytosolic side; current activated by 0.2 mM oleic acid / 10 mM MβCD; symmetrical pH 7.0; competitive with fatty acid; figure reproduced from the same laboratory's Fedorenko et al. 2012.

Turning to `Nc1ncnc2c1ncn2[C@@H]1O[C@H](COP(=O)(O)OP(=O)(O)OP(=O)(O)O)[C@@H](O)[C@H]1O` [ATP], the IC50 was 2.1 ± 0.1 µM.

A word on the IC50: it is the concentration needed to halve the response being measured. Higher therefore signals weaker potency.
